Blank lines part the entries; values can stand above or below the molecule they belong to.
What was measured:
KlLeu4 [1] = molecular target: T1, KlLeu4 (Kluyveromyces lactis, UniProt Q6CIW1); test: initial velocity kinetics from kinetic global fit, ordered bi-bi; type: biochemical; conditions: kinetic dissociation constant; varied with α-KIV 0.002–0.08 mM; 50 mM phosphate pH 7.5, 140 mM KCl, 4 mM MgCl2, 30 °C, DTNB; read-out: Kia /
T1 construct: gene KLLA0_F23529g; expressed in E. coli BL21(DE3), Ni-NTA purified (tag not described); homodimer
T1 sequence (Q6CIW1 1-609): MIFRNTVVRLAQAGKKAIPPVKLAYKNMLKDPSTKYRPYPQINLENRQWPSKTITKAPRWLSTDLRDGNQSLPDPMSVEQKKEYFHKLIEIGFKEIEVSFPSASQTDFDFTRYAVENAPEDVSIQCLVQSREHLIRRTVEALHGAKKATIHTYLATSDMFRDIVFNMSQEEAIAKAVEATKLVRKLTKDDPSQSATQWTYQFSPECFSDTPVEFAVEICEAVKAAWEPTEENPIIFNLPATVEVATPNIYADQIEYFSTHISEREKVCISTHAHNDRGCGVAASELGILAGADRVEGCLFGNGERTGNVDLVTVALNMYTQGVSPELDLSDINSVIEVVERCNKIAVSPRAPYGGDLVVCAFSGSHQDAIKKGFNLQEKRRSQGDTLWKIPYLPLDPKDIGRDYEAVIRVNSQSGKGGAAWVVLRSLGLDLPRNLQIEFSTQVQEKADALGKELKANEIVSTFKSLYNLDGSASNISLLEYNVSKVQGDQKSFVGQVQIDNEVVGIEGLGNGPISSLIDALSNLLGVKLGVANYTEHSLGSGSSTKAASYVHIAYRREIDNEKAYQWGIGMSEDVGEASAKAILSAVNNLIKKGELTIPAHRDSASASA
From the text: initial velocity kinetics from kinetic global fit, ordered bi-bi on KlLeu4

KlLeu4BIS [2] = molecular target: T2, KlLeu4BIS (Kluyveromyces lactis, UniProt Q6CQU3); test: as above; type: biochemical; conditions: kinetic dissociation constant; varied with α-KIV 0.01–0.25 mM; 50 mM phosphate pH 7.5, 140 mM KCl, 4 mM MgCl2, 30 °C, DTNB; read-out: Kia /
T2 construct: gene KLLA0_D14201g; expressed in E. coli Rosetta 2 (DE3), Ni-NTA purified (tag not described); homodimer
T2 sequence (Q6CQU3 1-583): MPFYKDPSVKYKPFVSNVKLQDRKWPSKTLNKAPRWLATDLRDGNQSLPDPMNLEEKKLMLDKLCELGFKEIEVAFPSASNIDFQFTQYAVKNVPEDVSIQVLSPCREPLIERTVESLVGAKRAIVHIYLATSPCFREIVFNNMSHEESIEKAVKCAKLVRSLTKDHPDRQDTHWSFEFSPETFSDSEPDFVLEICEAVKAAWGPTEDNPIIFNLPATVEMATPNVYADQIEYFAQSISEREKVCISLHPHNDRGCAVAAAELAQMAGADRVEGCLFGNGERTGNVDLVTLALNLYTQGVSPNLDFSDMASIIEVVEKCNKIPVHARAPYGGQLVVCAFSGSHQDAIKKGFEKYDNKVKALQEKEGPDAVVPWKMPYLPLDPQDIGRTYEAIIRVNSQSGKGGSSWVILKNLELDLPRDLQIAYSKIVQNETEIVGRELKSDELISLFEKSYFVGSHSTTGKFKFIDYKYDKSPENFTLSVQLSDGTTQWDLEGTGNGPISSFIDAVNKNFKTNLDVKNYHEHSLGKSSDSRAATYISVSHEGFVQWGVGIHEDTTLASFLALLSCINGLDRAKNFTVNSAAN
From the text: initial velocity kinetics from kinetic global fit, ordered bi-bi on KlLeu4BIS

KlLeu4 [3] = molecular target: T1, KlLeu4; test: initial velocity inhibition kinetics, global fit; type: biochemical; conditions: read-out: Kis /
From the text: initial velocity inhibition kinetics, global fit on KlLeu4

KlLeu4 [4] = molecular target: T3, KlLeu4 (Kluyveromyces lactis, UniProt Q6CIW1); test: α-IPMS activity in whole cell extract, DTNB assay […] nm; type: biochemical; conditions: 0.25 mM acetyl-CoA, 10 mM α-KIV, 50 mM phosphate pH 7.5, 140 mM KCl, 4 mM MgCl2, 30 °C
T3 construct: gene KLLA0_F23529g; native untagged enzyme in whole cell extract of the Klleu4bisΔ single mutant; homodimer

KlLeu4BIS [5] = molecular target: T2, KlLeu4BIS; test: initial velocity inhibition kinetics, global fit; type: biochemical; conditions: read-out: Kis /
From the text: initial velocity inhibition kinetics, global fit on KlLeu4BIS

KlLeu4BIS [6] = molecular target: T4, KlLeu4BIS (Kluyveromyces lactis, UniProt Q6CQU3); test: α-IPMS activity in whole cell extract, DTNB assay […] nm; type: biochemical; conditions: 0.25 mM acetyl-CoA, 10 mM α-KIV, 50 mM phosphate pH 7.5, 140 mM KCl, 4 mM MgCl2, 30 °C
T4 construct: gene KLLA0_D14201g; native untagged enzyme in whole cell extract of the Klleu4Δ single mutant; homodimer

[7] = substrate: CC(=O)SCCNC(=O)CCNC(=O)[C@H](O)C(C)(C)COP(=O)(O)OP(=O)(O)OC[C@H]1O[C@@H](n2cnc3c(N)ncnc32)[C@H](O)[C@@H]1OP(=O)(O)O; test: initial velocity kinetics, global fit, ordered bi-bi; type: biochemical, Kluyveromyces lactis; conditions: α-KIV co-varied 0.002–0.08 mM, 50 mM phosphate pH 7.5, 140 mM KCl, 4 mM MgCl2, 30 °C, DTNB
From the text: (§1) initial velocity kinetics, global fit, ordered bi-bi on KlLeu4

[8] = substrate: CC(C)C(=O)C(=O)O; test: as above; type: biochemical, Kluyveromyces lactis; conditions: acetyl-CoA co-varied 0.002–0.1 mM, 50 mM phosphate pH 7.5, 140 mM KCl, 4 mM MgCl2, 30 °C, DTNB
From the text: as §1

[9] = substrate: CC(=O)SCCNC(=O)CCNC(=O)[C@H](O)C(C)(C)COP(=O)(O)OP(=O)(O)OC[C@H]1O[C@@H](n2cnc3c(N)ncnc32)[C@H](O)[C@@H]1OP(=O)(O)O; test: as above; type: biochemical, Kluyveromyces lactis; conditions: α-KIV co-varied 0.01–0.25 mM, 50 mM phosphate pH 7.5, 140 mM KCl, 4 mM MgCl2, 30 °C, DTNB
From the text: (§2) initial velocity kinetics, global fit, ordered bi-bi on KlLeu4BIS

[10] = substrate: CC(C)C(=O)C(=O)O; test: as above; type: biochemical, Kluyveromyces lactis; conditions: acetyl-CoA co-varied 0.008–0.1 mM, 50 mM phosphate pH 7.5, 140 mM KCl, 4 mM MgCl2, 30 °C, DTNB
From the text: as §2

B1: KlLeu4 (Kluyveromyces lactis NRRL Y-1140) (protein)
chain: MIFRNTVVRLAQAGKKAIPPVKLAYKNMLKDPSTKYRPYPQINLENRQWPSKTITKAPRWLSTDLRDGNQSLPDPMSVEQKKEYFHKLIEIGFKEIEVSFPSASQTDFDFTRYAVENAPEDVSIQCLVQSREHLIRRTVEALHGAKKATIHTYLATSDMFRDIVFNMSQEEAIAKAVEATKLVRKLTKDDPSQSATQWTYQFSPECFSDTPVEFAVEICEAVKAAWEPTEENPIIFNLPATVEVATPNIYADQIEYFSTHISEREKVCISTHAHNDRGCGVAASELGILAGADRVEGCLFGNGERTGNVDLVTVALNMYTQGVSPELDLSDINSVIEVVERCNKIAVSPRAPYGGDLVVCAFSGSHQDAIKKGFNLQEKRRSQGDTLWKIPYLPLDPKDIGRDYEAVIRVNSQSGKGGAAWVVLRSLGLDLPRNLQIEFSTQVQEKADALGKELKANEIVSTFKSLYNLDGSASNISLLEYNVSKVQGDQKSFVGQVQIDNEVVGIEGLGNGPISSLIDALSNLLGVKLGVANYTEHSLGSGSSTKAASYVHIAYRREIDNEKAYQWGIGMSEDVGEASAKAILSAVNNLIKKGELTIPAHRDSASASA
notes: expressed in E. coli BL21(DE3), Ni-NTA purified (tag not described); homodimer
Km [7]: 26 ± 3 µM | Km [8]: 25 ± 3 µM

B2: KlLeu4BIS (Kluyveromyces lactis NRRL Y-1140) (protein)
chain: MPFYKDPSVKYKPFVSNVKLQDRKWPSKTLNKAPRWLATDLRDGNQSLPDPMNLEEKKLMLDKLCELGFKEIEVAFPSASNIDFQFTQYAVKNVPEDVSIQVLSPCREPLIERTVESLVGAKRAIVHIYLATSPCFREIVFNNMSHEESIEKAVKCAKLVRSLTKDHPDRQDTHWSFEFSPETFSDSEPDFVLEICEAVKAAWGPTEDNPIIFNLPATVEMATPNVYADQIEYFAQSISEREKVCISLHPHNDRGCAVAAAELAQMAGADRVEGCLFGNGERTGNVDLVTLALNLYTQGVSPNLDFSDMASIIEVVEKCNKIPVHARAPYGGQLVVCAFSGSHQDAIKKGFEKYDNKVKALQEKEGPDAVVPWKMPYLPLDPQDIGRTYEAIIRVNSQSGKGGSSWVILKNLELDLPRDLQIAYSKIVQNETEIVGRELKSDELISLFEKSYFVGSHSTTGKFKFIDYKYDKSPENFTLSVQLSDGTTQWDLEGTGNGPISSFIDAVNKNFKTNLDVKNYHEHSLGKSSDSRAATYISVSHEGFVQWGVGIHEDTTLASFLALLSCINGLDRAKNFTVNSAAN
notes: expressed in E. coli Rosetta 2 (DE3), Ni-NTA purified (tag not described); homodimer
Km [9]: 19 ± 5 µM | Km [10]: 55 ± 13 µM

Other lines, results leading:

Kd (KlLeu4 [1]): 17 ± 5 µM | Kd (KlLeu4BIS [2]): 12 ± 7 µM
Molecule: CC(=O)SCCNC(=O)CCNC(=O)[C@H](O)C(C)(C)COP(=O)(O)OP(=O)(O)OC[C@H]1O[C@@H](n2cnc3c(N)ncnc32)[C@H](O)[C@@H]1OP(=O)(O)O [acetyl coenzyme A]

Ki (KlLeu4 [3]): 34 ± 11 µM | IC50 (KlLeu4 [4]): 20 µM | Ki (KlLeu4BIS [5]): 31 ± 8 µM | IC50 (KlLeu4BIS [6]): 37 µM
Molecule: CC(C)C[C@H](N)C(=O)O [leucine]
